Measurements as given in patent US20240307349A1, “METHODS FOR THE PREPARATION AND DOSE REGIMENS FOR USE OF SSTR4 AGONISTS AND SALTS THEREOF” (priority 2023, published 2024).

Columns and labels:
Format in all cases: in vivo, human
[1] = Phase 1 study LXBB, single-dose pharmacokinetics in healthy subjects
Method: A total of 116 healthy subjects received at least one dose of Example 5 in phase 1 studies LXBB and LXBA.
The single-dose pharmacokinetics (PK) of Example 5 were evaluated at a dose range of from 20 to 400 mg.
(§1) Phase 1 Study LXBB was a first-in-human single-ascending dose/multiple-ascending dose (SAD/MAD) study in 89 healthy subjects (TABLE 1). […] One subject was discontinued due to the nondrug-related AE of pyrexia. In the SAD study, 1 subject each reported AEs of temporomandibular joint syndrome and tension headache. In the food effect study, 1 subject reported dry eye and nausea. In the Younger Group 10-day multiple-dose exposure study, the most commonly reported AEs were headache (2 subjects), diarrhea (2 subjects), nausea, rhinitis, and orthostatic hypotension (1 subject each). In the Elderly Group 10-day multiple-dose exposure study, the most commonly reported AEs were headache (5 subjects), pain in extremity (1 subject), vessel puncture site bruise (1 subject), dizziness (1 subject), and orthostatic hypotension (1 subject).

healthy subjects [2] = test: Phase 1 study LXBB (SAD/MAD), safety and tolerability in healthy subjects
From the text: (§2) The safety and tolerability of Example 5, were initially based on the 2 completed Phase 1 studies (LXBB and LXBA) and later confirmed with 3 completed Phase 2 studies (OA03, BP03, and NP03, as disclosed below).
as §1
The mean PR interval increase from baseline was 13 msec in subjects receiving single 400-mg dose (SAD); the highest PR interval change from baseline in an individual subject was 45 msec (after the 300-mg dose in MAD).

healthy subjects [3] = test: Phase 1 study LXBA, safety and tolerability in healthy subjects
From the text: as §2
Study LXBA is a completed study and consisted of 2 parts, Part A and Part B (TABLE 1). Part A of the study had 18 healthy subjects in 3 dosing cohorts, and Part B had 9 healthy subjects exposed to Example 5. […] In Part A, all treatment-emergent adverse events (TEAEs) were mild in severity except for 1 moderate event of presyncope. Constipation and insomnia (2 events each) were the only TEAEs reported in >1 subject. In Part B, the reported TEAEs were dysgeusia, nausea, and vomiting, which were all mild in severity.

patients = test: Pooled safety analysis of Phase 2 studies OA03, BP03 and NP03; details: 200 mg to 600 mg
Method: For each of these studies, further analyses were performed to identify TEAEs related to CV, thyroid, and abnormal renal function. CV AEs were identified using prespecified standardized MedDRA queries/preferred terms (SMQs/PTs) for cardiac arrhythmia, hypotension, major adverse cardiovascular event, and congestive heart failure. Thyroid-related AEs were identified with the ‘Hypothyroidism’ (SMQ), and AEs associated with abnormal renal function were identified with the high-level terms (HLTs) renal failure and impairment and select PTs.
Safety data from the 3 pooled intervention-specific appendix (ISAs), OA03, BP03, and NP03 were analyzed for the following safety topics of interest.
Thus, after the treatment of a total 282 patients that were administered from 200 mg to 600 mg of Example 5 in the 3 phase 2 studies, an adequate safety profile was established. While the safety of the 3 phase 2 studies were discussed together, the efficacy results for each study will be discussed herein.

Compound: Cc1cccnc1OCC(C)(C)NC(=O)[C@H]1[C@@H]2CNC[C@@H]21.O=C(O)C(O)C(O)C(=O)O [Example 5, (1R,5S,6r)-N-(2-Methyl-1-((3-methylpyridin-2-yl)oxy)propan-2-yl)-3-azabicyclo[3.1.0]hexane-6-carboxamide L-tartrate sesquihydrate]
- Tmax ([1]; human, in vivo): 2 to 3 h
- CL renal ([1]; human, in vivo, single dose, 20 to 400 mg, read-out: Renal clearance (converted)): ~167 mL/min
- half-life ([1]; human, in vivo, single dose, 20 to 400 mg, read-out: mean terminal half-life (t1/2)): 11 to 13 h
- dose dependence of plasma concentrations ([1]; single dose, 20 to 400 mg): generally increased in a dose-proportional manner
- inter-subject variability coefficient of variation of plasma concentrations ([1]; single dose, 20 to 400 mg): < 25%
- deaths or serious adverse events (SAEs) (healthy subjects [2]; SAD and MAD study): No deaths or serious adverse events (SAEs) were reported
- severity of adverse events (AEs) (healthy subjects [2]; SAD and MAD study): mild or moderate in severity
- tolerability (healthy subjects [2]; SAD and MAD study, 89 healthy subjects): well tolerated
- highest PR interval change from baseline in an individual subject (healthy subjects [2]; after the 300-mg dose in MAD): 45 ms
- changes in chemistry, hematology, or coagulation parameters (healthy subjects [2]; human, in vivo): no clinically significant changes
- mean PR interval increase from baseline (healthy subjects [2]; single 400-mg dose (SAD)): 13 ms
- tolerability (healthy subjects [3]; Part A 18 and Part B 9 healthy subjects): generally well tolerated
- deaths, SAEs, or discontinuations due to AEs (healthy subjects [3]; human, in vivo): No deaths, SAEs, or discontinuations due to AEs have been reported
- severity of AEs (healthy subjects [3]; human, in vivo): majority of AEs were of mild severity
- differences in thyroid-related TEAEs or thyroid analytes versus placebo (patients): no clinically meaningful differences
